This note sets out measurements from paper PMC6792352, “Limited Chemical Structural Diversity Found to Modulate Thyroid Hormone Receptor in the Tox21 Chemical Library” (Environmental Health Perspectives, 2019).

SMILES strings stand for the structures.

A short description of one series: in vitro. To be noted: rat, gh3-tre-luc cells, AC50 (uM) modified / 1000.
`Oc1ccc(C2(c3ccc(O)cc3)CC3CC2C2CCCC32)cc1` (stereo not drawn) [4,4'-Octahydro-1H-4,7-methanoindene-5,5-diyldiphenol] yielded a CC50 at 24 h of 27.4 µM.
Turning to `NNS(=O)(=O)c1ccc(Oc2ccc(S(=O)(=O)NN)cc2)cc1` [4,4'-Oxybis(benzenesulfohydrazide)], the cytotoxic concentration (CC50) at 24 h is above 90 µM.
Still for that read-out and setting: the same measure for `Nc1ccc(Oc2ccc(N)cc2)cc1` [4,4'-Oxydianiline]: above 90 µM; for `c1cc(CCCc2ccncc2)ccn1` [4,4'-Propane-1,3-diyldipyridine]: above 90 µM.
On the same count and under the same terms, for `Cc1cc(C(C)(C)c2cc(C)c(O)c(C)c2)cc(C)c1O` [4,4'-Propane-2,2-diylbis(2,6-dimethylphenol)] the value was 16.9 µM.
The same measure, in the same setting: the same measure for `CC(C)(C1CCC(O)CC1)C1CCC(O)CC1` (stereo not drawn) [4,4'-Propane-2,2-diyldicyclohexanol]: above 90 µM; for `C=CCc1cc(S(=O)(=O)c2ccc(O)c(CC=C)c2)ccc1O` [4,4'-Sulfonylbis[2-(prop-2-en-1-yl)phenol]]: 49.1 µM; for `O=S(=O)(c1ccc(O)cc1)c1ccc(O)cc1` [4,4'-Sulfonyldiphenol]: above 90 µM.
Compound `Cc1cc(O)c(C(C)(C)C)cc1Sc1cc(C(C)(C)C)c(O)cc1C` [4,4'-Thiobis(6-tert-butyl-m-cresol)] returned a 50% cytotoxic concentration (CC50) at 24 h of 3.64 µM.
Same read-out and setting: for `Nc1ccc(Sc2ccc(N)cc2)cc1` [4,4'-Thiodianiline] the value was above 90 µM.
Regarding `Oc1ccc(Sc2ccc(O)cc2)cc1` [4,4'-Thiodiphenol], half-maximal cytotoxicity (CC50 at 24 h) was put at 47.9 µM.
Still for that read-out and setting: the same measure for `CC(C)(C)CC(C)(C)c1ccc(Nc2ccc(C(C)(C)CC(C)(C)C)cc2)cc1` [4,4'-bis(1,1,3,3-Tetramethylbutyl)diphenylamine]: above 5 µM; for `O=C(CC(=O)C(F)(F)F)c1ccccc1` [4,4,4-Trifluoro-1-phenyl-1,3-butanedione]: above 90 µM; for `CCO[Si](CCCSSSSCCC[Si](OCC)(OCC)OCC)(OCC)OCC` [4,4,15,15-Tetraethoxy-3,16-dioxa-8,9,10,11-tetrathia-4,15-disilaoctadecane]: 70.3 µM.
Regarding `CCCCCCCCn1sc(Cl)c(Cl)c1=O` [4,5-Dichloro-2-octyl-3(2H)-isothiazolone], it took 12.7 µM to reach half-maximal cytotoxicity (CC50 at 24 h).
Same read-out and setting: the same measure for `O=c1ssc(Cl)c1Cl` [4,5-Dichloro-3H-1,2-dithiol-3-one]: 48 µM.
Still for that read-out and setting: the same measure for `CN1C(=O)N(C)C(O)C1O` (stereo not drawn) [4,5-Dihydroxy-1,3-dimethylimidazolidin-2-one]: above 90 µM; for `CC1=C(O)C(=O)OC1C` (stereo not drawn) [4,5-Dimethyl-3-hydroxy-2,5-dihydrofuran-2-one]: above 90 µM.
Compound `c1ccc(-c2nc[nH]c2-c2ccccc2)cc1` [4,5-Diphenylimidazole] showed a CC50 at 24 h above 50 µM.
The same measure, in the same setting: for `Cc1cc(O)c(C(C)(C)C)cc1C(C)(C)C` [4,6-Di-tert-butyl-m-cresol] the value was 22.6 µM; for `Oc1cc(O)c(Cl)cc1Cl` [4,6-Dichloro-1,3-benzenediol], above 90 µM; for `CCOc1cc([N+](=O)[O-])c(OCC)cc1N1CCOCC1` [4-(2,5-Diethoxy-4-nitrophenyl)morpholine], above 90 µM.
The same measure, in the same setting: the same measure for `CC(=O)C=CC1=C(C)CCCC1(C)C` [4-(2,6,6-Trimethyl-cyclohex-1-enyl)-but-3-en-2-one]: above 90 µM; for `OCCN1CCOCC1` [4-(2-Hydroxyethyl)morpholine]: above 90 µM.
On the same count and under the same terms, the same measure for `CCC(C)(C)C1CCC(O)CC1` (stereo not drawn) [4-(2-Methylbutan-2-yl)cyclohexanol]: above 90 µM.
Regarding `CCC(C)(C)c1ccc(O)cc1` [4-(2-Methylbutan-2-yl)phenol], the CC50 at 24 h is above 90 µM.
Still for that read-out and setting: the same measure for `CC(C)(c1ccccc1)c1ccc(Nc2ccc(C(C)(C)c3ccccc3)cc2)cc1` [4-(2-Phenylpropan-2-yl)-N-[4-(2-phenylpropan-2-yl)phenyl]aniline]: above 90 µM.
Same read-out and setting: for `CC1=NN(c2ccc(S(=O)(=O)O)cc2)C(=O)C1` [4-(3-Methyl-5-oxo-4,5-dihydro-1H-pyrazol-1-yl)benzenesulfonic acid] the value was above 90 µM.
The same measure, in the same setting: for `CC1=NN(c2ccc(C(=O)O)cc2)C(=O)C1` [4-(3-Methyl-5-oxo-4,5-dihydro-1H-pyrazol-1-yl)benzoic acid] the value was above 90 µM; for `c1ccc(CCCc2ccncc2)cc1` [4-(3-Phenylpropyl)pyridine], above 90 µM; for `CC(=O)CCc1ccc(OC(C)=O)cc1` [4-(4-(Acetyloxy)phenyl)-2-butanone], above 90 µM.
With `COc1cc(CCC(C)=O)ccc1O` [4-(4-Hydroxy-3-methoxyphenyl)-2-butanone], the CC50 at 24 h was above 90 µM.
The same measure, in the same setting: for `CC(C)(O)CCCC1=CCC(C=O)CC1` (stereo not drawn) [4-(4-Hydroxy-4-methylpentyl)cyclohex-3-ene-1-carbaldehyde] the value was above 100 µM; for `CC(=O)CCc1ccc(O)cc1` [4-(4-Hydroxyphenyl)butan-2-one], above 90 µM; for `COc1ccc(CCC(C)=O)cc1` [4-(4-Methoxyphenyl)-2-butanone], above 90 µM.
The same measure, in the same setting: the same measure for `CC(=O)Nc1ccc(S(=O)(=O)Cl)cc1` [4-(Acetylamino)benzenesulfonyl chloride]: above 90 µM; for `CCC(C)c1cc(C(C)(C)C)c(O)c(C(C)(C)C)c1` (stereo not drawn) [4-(Butan-2-yl)-2,6-di-tert-butylphenol]: above 90 µM; for `CCC(C)c1ccc(O)cc1` (stereo not drawn) [4-(Butan-2-yl)phenol]: 61.9 µM.
On to `CN(C)c1ccc(SC#N)cc1` [4-(Dimethylamino)phenylthiocyanate], for which the CC50 at 24 h was above 90 µM.
On the same count and under the same terms, the same measure for `C=COCCCCO` [4-(Ethenyloxy)butan-1-ol]: above 90 µM; for `CCCCCCOc1ccc(O)cc1` [4-(Hexyloxy)phenol]: 25.3 µM; for `CC1(CO)CN(c2ccccc2)NC1=O` (stereo not drawn) [4-(Hydroxymethyl)-4-methyl-1-phenylpyrazolidin-3-one]: above 90 µM.
In the case of `CSc1ccc(C=O)cc1` [4-(Methylthio)benzaldehyde], the 50% cytotoxic concentration (CC50) at 24 h is above 90 µM.
In the case of `CCC(C)(C)C1CCC(=O)CC1` [4-(tert-Pentyl)-cyclohexanone], the CC50 at 24 h was above 90 µM.
The same measure, in the same setting: for `CC(=O)Nc1ccc(C(=O)O)cc1` [4-Acetamidobenzoic acid] the value was above 90 µM; for `CC(=O)Nc1ccc(CC(=O)O)cc1` [4-Acetylaminophenylacetic acid], above 90 µM.
On the same count and under the same terms, the same measure for `CC(=O)Oc1ccc(C(C)=O)cc1` [4-Acetylphenyl acetate]: above 100 µM.
Still for that read-out and setting: for `Nn1cnnc1` [4-Amino-1,2,4-triazole] the value was above 90 µM; for `COc1cc(S(=O)(=O)Nc2ccccc2)c(OC)cc1N` [4-Amino-2,5-dimethoxy-N-phenylbenzenesulfonamide], above 90 µM; for `Nc1cc(Cl)c(O)c(Cl)c1` [4-Amino-2,6-dichlorophenol], 83.2 µM.
`Nc1ccc(O)c([N+](=O)[O-])c1` [4-Amino-2-nitrophenol] returned a half-maximal cytotoxic concentration (CC50) at 24 h above 90 µM.
On the same count and under the same terms, the same measure for `NCC(O)CC(=O)O` (stereo not drawn) [4-Amino-3-hydroxybutyric acid]: above 50 µM.

Staying with this series, now noted: rat, gh3-tre-luc cells, AC50 (uM) modified / 1000, Tox21_110001=Tox21_200757; viability, 1 nM T3 present, 24 h.
Compound `CN(C)c1ccc(N=Nc2ccccc2)cc1` [4-(Dimethylamino)azobenzene] came in with a CC50 at 24 h above 90 µM.

Still in this series, the particulars now being: rat, gh3-tre-luc cells, AC50 (uM) modified / 1000, Tox21_110001=Tox21_201723; viability, 1 nM T3 present, 24 h.
Consider `Nc1ccc(Cc2ccc(N)cc2)cc1` [4,4'-Methylenedianiline], for which the half-maximal cytotoxic concentration (CC50) at 24 h is above 90 µM.

What is called CC50 is the concentration that lowers cell viability or growth by half. Higher therefore signals lower toxicity to the cells.
